Source: the supplement of paper PMC11061612

Legend:
Assay in all cases: Bliss excess, mean over the matrix (fraction); higher = more synergy
[1] = system: ATN-1 (T-Lymphoblastic Leukemia)
Method in brief: (§1)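 After 24 hours at 37°C and 5% CO2 in 1536-well plates, cells in DMEM/F12 or RPMI plus 10% FBS received two-drug dose matrices for 72 hours. Viability came from CellTiter-Glo 2.0 luminescence and was scaled as inhibition, anchored at 0 by vehicle wells and at 1 by blank wells. Combination Emax is taken as the second-highest inhibition in the matrix, and Bliss excess as the observed combination effect less EA + EB − EA·EB, with EA and EB the single-agent effects.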

[2] = system: BT-474 (Breast Carcinoma)
Method in brief: as §1

C32 (Melanoma) = system: C32 (Melanoma)
Method in brief: as §1

[3] = system: CAL-85-1 (Breast Carcinoma)
Method in brief: as §1

GCIY (Gastric Carcinoma) = system: GCIY (Gastric Carcinoma)
Method in brief: as §1

[4] = system: GRANTA-519 (B-Cell Non-Hodgkin's Lymphoma)
Method in brief: as §1

[5] = system: HT-1197 (Bladder Carcinoma)
Method in brief: as §1

HT-144 (Melanoma) = system: HT-144 (Melanoma)
Method in brief: as §1

[6] = system: JJN-3 (Plasma Cell Myeloma)
Method in brief: as §1

[7] = system: KNS-62 (Squamous Cell Lung Carcinoma)
Method in brief: as §1

[8] = system: L-363 (Plasma Cell Myeloma)
Method in brief: as §1

[9] = system: NCI-H1048 (Small Cell Lung Carcinoma)
Method in brief: as §1

[10] = system: NCI-H1435 (Non-Small Cell Lung Carcinoma)
Method in brief: as §1

[11] = system: NCI-H1975 (Lung Adenocarcinoma)
Method in brief: as §1

[12] = system: NCI-H2009 (Lung Adenocarcinoma)
Method in brief: as §1

[13] = system: OCI-M1 (Acute Myeloid Leukemia)
Method in brief: as §1

SK-N-DZ (Neuroblastoma) = system: SK-N-DZ (Neuroblastoma)
Method in brief: as §1

[14] = system: TK (B-Cell Non-Hodgkin's Lymphoma)
Method in brief: as §1

A375 (Melanoma) = system: A375 (Melanoma)
Method in brief: as §1

[15] = system: NTERA-2-cl-D1 (Other Solid Carcinomas)
Method in brief: as §1

| Compound | Bliss excess [1] | Bliss excess [2] | Bliss excess (C32 (Melanoma)) | Bliss excess [3] | Bliss excess (GCIY (Gastric Carcinoma)) | Bliss excess [4] | Bliss excess [5] | Bliss excess (HT-144 (Melanoma)) | Bliss excess [6] | Bliss excess [7] | Bliss excess [8] | Bliss excess [9] | Bliss excess [10] | Bliss excess [11] | Bliss excess [12] | Bliss excess [13] | Bliss excess (SK-N-DZ (Neuroblastoma)) | Bliss excess [14] | Bliss excess (A375 (Melanoma)) | Bliss excess [15] |
| --- | --- | --- | --- | --- | --- | --- | --- | --- | --- | --- | --- | --- | --- | --- | --- | --- | --- | --- | --- | --- |
| C=CCn1c(=O)c2cnc(Nc3ccc(N4CCN(C)CC4)cc3)nc2n1-c1cccc(C(C)(C)O)n1 [AZD1775] + C1CN(CCC1(C(=O)N[C@@H](CCO)C2=CC=C(C=C2)Cl)N)C3=NC=NC4=C3C=CN4 [Capivasertib] (first compound max 3 µM, partner max 3 µM) | 0.0364 | 0.0145 | -0.0772 | -0.0528 | -0.0277 | -0.0163 | -0.0488 | 0.0014 | -0.0417 | -0.0128 | -0.0379 | -0.0301 | 0.0011 | -0.0668 | -0.0011 | 0.0245 | -0.0116 | 0.0183 | – | – |
| CN(CCO)CC[C@H](CSc1ccccc1)Nc1ccc(S(=O)(=O)NC(=O)c2ccc(N3CCC([C@@H](O)c4ccccc4-c4ccc(Cl)cc4)CC3)cc2)cc1S(=O)(=O)C(F)(F)F [AZD4320] + CC(=O)O[C@H]1C(=O)[C@@]2(C)[C@H]([C@H](OC(=O)c3ccccc3)[C@]3(O)C[C@H](OC(=O)[C@H](O)[C@@H](NC(=O)c4ccccc4)c4ccccc4)C(C)=C1C3(C)C)[C@]1(OC(C)=O)CO[C@@H]1C[C@@H]2O [Paclitaxel] (first compound max 1 µM, 7x7, partner max 3 µM) | – | – | 0.107 | 0.0773 | 0.131 | – | – | – | – | 0.185 | -0.0131 | – | 0.167 | – | 0.0889 | – | – | – | 0.0759 | 0.0025 |
| CN(CCO)CC[C@H](CSc1ccccc1)Nc1ccc(S(=O)(=O)NC(=O)c2ccc(N3CCC([C@@H](O)c4ccccc4-c4ccc(Cl)cc4)CC3)cc2)cc1S(=O)(=O)C(F)(F)F [AZD4320] + CCN(CCO)CCCOc1ccc2c(Nc3cc(CC(=O)Nc4cccc(F)c4)[nH]n3)ncnc2c1 [AZD2811] (first compound max 1 µM, 7x7, partner max 1 µM) | 0.0082 | 0.0081 | 0.114 | 0.0218 | -0.0067 | 0.191 | -0.016 | 0.0304 | 0.151 | -0.0204 | -0.015 | 0.139 | 0.004 | -0.0226 | -0.0461 | 0.0074 | 0.0087 | 0.129 | 0.0107 | 0.159 |
| CN(CCO)CC[C@H](CSc1ccccc1)Nc1ccc(S(=O)(=O)NC(=O)c2ccc(N3CCC([C@@H](O)c4ccccc4-c4ccc(Cl)cc4)CC3)cc2)cc1S(=O)(=O)C(F)(F)F [AZD4320] + Cc1cc2ncnn2cc1Nc1ncc2c(n1)n(C1CCOCC1)c(=O)n2C [AZD7648] (first compound max 1 µM, 7x7, partner max 10 µM) | 0.0479 | -0.0628 | -0.0275 | -0.0118 | -0.0452 | 0.0049 | -0.0497 | -0.0122 | 0.0461 | -0.0628 | 0.0181 | 0.0256 | 0.0137 | -0.0283 | -0.0437 | 0.0138 | -0.0362 | -0.0018 | -0.0312 | 0.0408 |
